According to US12440571B2, “Immune agonists” (SHENZHEN UNIVERSITY, priority 2020, dated 2025):
Read-outs that look alike come from different tables or passages of the source.

What was measured:
Type in all cases: cell-based
[1] = tested on: human lymphoma Daudi B cells; assay: CCK8 growth inhibition, Daudi B; conditions: CCK8 method; read-out: IC50 of inhibitory activity on tumor cell growth, Daudi B
[2] = tested on: human lymphoma Raji cells; assay: CCK8 growth inhibition, Raji; conditions: CCK8 method, read-out: IC50 of inhibitory activity on tumor cell growth, Raji
[3] = target: T1, TLR7 (Homo sapiens, UniProt Q9NYK1); assay: Detection of TLR7 activation (HEK-Blue Detection), SEAP reporter; conditions: for EC50: HEK-Blue hTLR7 cells, 6-16 hrs, absorbance 650 nm
T1 construct: host or cells: HEK-Blue hTLR7 cells (HEK293-derived SEAP reporter line)
T1 sequence (Q9NYK1 27-1049): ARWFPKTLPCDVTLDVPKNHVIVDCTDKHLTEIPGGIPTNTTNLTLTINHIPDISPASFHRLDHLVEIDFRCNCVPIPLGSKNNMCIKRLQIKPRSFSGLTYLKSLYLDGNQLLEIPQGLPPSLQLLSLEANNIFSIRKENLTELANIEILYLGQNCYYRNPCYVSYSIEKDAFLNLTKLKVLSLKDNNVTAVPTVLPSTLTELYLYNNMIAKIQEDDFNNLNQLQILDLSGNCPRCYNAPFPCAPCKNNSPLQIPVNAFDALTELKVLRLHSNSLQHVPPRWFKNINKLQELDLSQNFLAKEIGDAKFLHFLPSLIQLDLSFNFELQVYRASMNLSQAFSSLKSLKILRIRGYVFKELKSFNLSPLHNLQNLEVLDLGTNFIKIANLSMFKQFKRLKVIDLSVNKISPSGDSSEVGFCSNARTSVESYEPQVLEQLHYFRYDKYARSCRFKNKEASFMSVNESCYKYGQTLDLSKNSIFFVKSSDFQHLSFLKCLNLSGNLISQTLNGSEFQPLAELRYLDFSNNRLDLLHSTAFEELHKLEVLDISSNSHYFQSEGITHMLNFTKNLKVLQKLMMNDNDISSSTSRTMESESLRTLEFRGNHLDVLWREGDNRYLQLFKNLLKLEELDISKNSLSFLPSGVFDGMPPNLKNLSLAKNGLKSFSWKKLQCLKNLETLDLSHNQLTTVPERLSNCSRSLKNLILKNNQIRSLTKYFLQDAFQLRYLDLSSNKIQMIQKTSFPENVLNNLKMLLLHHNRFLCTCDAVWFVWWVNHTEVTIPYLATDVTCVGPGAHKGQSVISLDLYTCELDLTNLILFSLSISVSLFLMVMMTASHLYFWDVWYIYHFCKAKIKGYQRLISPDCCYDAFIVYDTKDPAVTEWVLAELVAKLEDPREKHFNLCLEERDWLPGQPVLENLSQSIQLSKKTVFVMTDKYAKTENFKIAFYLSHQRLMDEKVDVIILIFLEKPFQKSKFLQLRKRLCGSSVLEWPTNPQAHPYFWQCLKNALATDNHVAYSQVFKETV
Experimental: HEK-Blue™hTLR7 cells (purchased from InvivoGen) in a logarithmic growth phase were taken, with a growth medium (Gibco, C11995500BT, Invivo Gen, ant-nr) discarded. The cells were gently rinsed twice by an appropriate amount of 37° C. PBS (Hyclone, SH30256.01), a rinsed PBS was discarded. Thereafter, the cells were added with 2-5 mL of 37° C. PBS, incubated for 1 to 2 minutes, and then scraped by a cell scraper and gently pipetted to be dispersed into a single cell suspension. A hemocytometer was adopted to count the cells and a cell concentration was calculated. After that, a HEK-Blue™ Detection solution (purchased from Invivo Gen) was adopted to adjust the cell concentration of the cell suspension to 2.5×10^4/180 μL per well for cell plating on a 96-well cell culture plate. The HEK-Blue™hTLR7 cells were stimulated according to the designed series of GY compound or drug concentrations (0.01 μM, 0.1 μM, 1 μM, 5 μM, 15 μM, and 30 μM), with 3 replicate wells for each concentration, and were incubated at 37° C., 5% carbon dioxide for 6-16 hrs. After the incubation, the absorbance value was read at 650 nm with a full-wavelength microplate reader (BioTek-Epoch), as listed in Table 2.
Relative induction=(average OD value of experimental group−average OD value of negative control group)/average OD value of negative control group.
Specific details for the above method may be referred to https: • //www.invivogen.com/hek-blue-htlr7; https://www.invivogen.com/sites/default/files/invivogen/products/files/hek_blue_htlr7_tds.pdf.

[4] = tested on: human leukemia HL-60 cells; assay: CCK8 growth inhibition, HL60; conditions: read-out: IC50 of inhibitory activity on tumor cell growth, HL60
[5] = tested on: murine spleen lymphocytes; assay: Cytokine stimulation of murine spleen lymphocytes, ELISA; conditions: for EC50: Lymphocyte
Experimental: The stimulating effect of a series of GY compounds or drugs on murine spleen lymphocytes was detected by ELISA.
6-week-old Balb/c mice were sacrificed by cervical dislocation, spleens were taken under aseptic conditions. A 1 mL sterile syringe and a 200 mesh cell strainer were adopted to quickly grind and disperse the spleen into individual cells in 4 mL of a murine lymphocyte separation solution (Dakko's, 7211011). A resulting cell homogenate was transferred to a 15 mL centrifuge tube, then 1 mL of a RPMI 1640 medium (Hyclone, SH30809.01) was slowly added. Spleen lymphocytes were separated by a density gradient centrifugation method (800×g, 30 min), washed, red blood cells therein were lysed, such that a dispersed spleen lymphocyte suspension was obtained. Cells were counted by a hemocytometer, to calculate the cell concentration. A RPMI 1640 complete medium was adopted to adjust the cell suspension to a concentration of 1×10^6/ml/well, and the cells were then plated on a 24-well cell culture plate (Corning, 3524).
Murine spleen lymphocytes were stimulated according to the gradient concentrations of the series of GY compounds or drugs, and incubated in a 37° C., 5% carbon dioxide incubator for 24 hrs.
• (1) Coating: a Capture antibody (primary antibody, purchased from Invitrogen) was diluted with a 1×Coating Buffer (coating buffer, purchased from Invitrogen) to a recommended concentration, and 100 μL of a resulting diluted solution was added to each well of a 96-well microtiter plate, the plate was sealed with a sealing film at 4° C. overnight. • (2) Washing: a liquid in each well was discarded, then 300 μL of a PBST working solution was added to each well and kept for 1 min, thereafter, the liquid therein was discarded. The washing process was repeated 3 times. • (3) Blocking: 200 μL of a blocking solution was added to each well. The plate was sealed with a sealing film, and placed on a shaker and incubated at room temperature for 1 hr, then washed and patted to be dry. • (4) Sample incubation: a sample was collected and centrifuged to collect a supernatant. Standards, samples, negative controls, and blank controls were provided in the 96-well microtiter plate, and each concentration or sample were provided with 2 replicates. 100 μL of a standard or sample was added to each well, thereafter, the plate was sealed with a sealing film, incubated on a shaker at room temperature for 1 hr or overnight at 4° C., then washed and pated to be dry. • (5) Secondary antibody incubation: the detection antibody (secondary antibody, purchased from Invitrogen) was diluted to a recommended concentration with a dilution buffer, 100 μL of a secondary antibody was added to each well. After being sealed with a sealing film, the plate was incubated on a shaker at room temperature for 1 hr, then washed and patted to be dry. • (6) Avidin-HRP incubation: Avidin-HRP (horseradish peroxidase marker, purchased from Invitrogen) was diluted to the recommended concentration with a dilution buffer, 100 μL of Avidin-HRP was added to each well. After being sealed with a sealing film, the plate was placed on a shaker and incubated at room temperature for 30 mins, washed 5-7 times by the process of step 2), and patted to be dry. • (7) TMB color development: 100 μL of a TMB color development solution (purchased from Invitrogen) was added to each well, for carrying out reaction for 15 mins at room temperature in the dark. • (8) Stopping reaction: 50 μL of 1M H2SO4 solution was added to each well. • (9) Reading an absorbance value by a microplate reader: the OD value at 450 nm wavelength was read. A standard curve and a parameter nonlinear regression equation were drawn, and a sample concentration was calculated according to the obtained formula.

[6] = Homo sapiens, HL-60, CCK8 method
[7] = mouse immune cells (spleen lymphocytes), 24 hrs, ELISA, read-out: IFN-gamma EC50 of cytokine stimulating activity
[8] = mouse immune cells (spleen lymphocytes), 24 hrs, ELISA, read-out: IL-6 EC50 of cytokine stimulating activity
[9] = mouse immune cells (spleen lymphocytes), 24 hrs, ELISA, read-out: TNF-alpha EC50 of cytokine stimulating activity

| Structure (SMILES) | EC50 ([3]; read-out: TLR7(EC50/μM)) | EC50 [5, 7] | EC50 [5, 8] | EC50 [5, 9] | also measured |
| --- | --- | --- | --- | --- | --- |
| CCOCc1nc2c(N)nc3ccccc3c2n1CC(C)(C)O [Compound R848, Resiquimod, reference compound] |  | 56 nM | < 1 nM | < 1 nM |  |
| C#CCn1c(O)nc2c(N)nc(OCCCC)nc21 [GY100] | 2.25 µM | 104 nM | < 1 nM | < 1 nM | TLR7 agonist activity (in words) [3]: highly active TLR7 agonist |
| CCCCOc1nc(N)c2nc(O)n(Cc3cn(CCOCCOCCOCC(=O)O)nn3)c2n1 [GY101] | 0.003 µM | 122 nM | 1050 nM | 7 nM |  |
| CCCCOc1nc(N)c2nc(O)n(Cc3cn(CCOCCOCCOCCN)nn3)c2n1 [GY102] | 0.79 µM | 1070 nM | 637 nM | 1440 nM |  |
| CCCCOc1nc(N)c2nc(O)n(Cc3cn(CCCCCCCCCCCCP(=O)(O)O)nn3)c2n1 [GY103] | 0.86 µM | 3340 nM | 1510 nM | 2620 nM |  |
| CCCCOc1nc(N)c2nc(O)n(Cc3cn(CCOCCOCCOCCN=C=S)nn3)c2n1 [GY106] |  |  |  |  | EC50 ([5]; Mus musculus, 24 h, read-out: IFN-gamma EC50 of cytokine stimulating activity): 2830 nM; EC50 ([5]; Mus musculus, 24 h, read-out: IL-6 EC50 of cytokine stimulating activity): < 1 nM; EC50 ([5]; Mus musculus, 24 h, read-out: TNF-alpha EC50 of cytokine stimulating activity): < 1 nM; EC50 ([3]; TLR7(EC50/μM)): 0.08 µM |
| CCCCOc1nc(N)c2nc(O)n(Cc3cn(CCOCCOCCOCCNC(=O)c4cc5c(Oc6ccc(NC(=O)NC7CC7)c(Cl)c6)ccnc5cc4OC)nn3)c2n1 [GY114] | 1.98 µM |  |  |  |  |
| CCCCOc1nc(N)c2nc(O)n(Cc3cn(CCOCCOCCOc4c(OC)cc(/C=C/C(=O)N5CCC=CC5=O)cc4OC)nn3)c2n1 [GY117] | 0.22 µM |  |  |  | IC50 [4, 6]: 19000 nM |
| CCCCOc1nc(N)c2nc(O)n(Cc3cn(CCOCCOCCOCCNC(=S)NC(CCC(=O)NC(CS)C(=O)NCC(=O)O)C(=O)O)nn3)c2n1 (stereo not shown) [GY126] | 0.92 µM |  |  |  |  |
| CCCCOc1nc(N)c2nc(O)n(Cc3cn(CCCCCCCCCCCCCCC(=O)O)nn3)c2n1 [GY145] | 0.29 µM |  |  |  |  |
| CCCCOc1nc(N)c2nc(O)n(Cc3cn(CCOCCOCCOCC(=O)NO)nn3)c2n1 [GY163] |  | 7860 nM | 1100 nM | 58 nM |  |
| CC(C)Cn1cnc2c(N)nc3ccccc3c21 [Imiquimod, reference compound] |  |  | 8300 nM | 8350 nM | IFN-gamma EC50 of cytokine stimulating activity ([5]; mouse immune cells (spleen lymphocytes), 24 hrs, ELISA): No fit |

Further lines, with some results ahead:

| EC50 ([3]; read-out: TLR7(EC50/μM)) | EC50 [5, 7] | EC50 [5, 8] | EC50 [5, 9] | Structure (SMILES) | also measured |
| --- | --- | --- | --- | --- | --- |
| 1.99 µM |  |  |  | CCCCOc1nc(N)c2nc(O)n(Cc3cn(CCOCCOCCOCCNC(=S)N4CCC(C5CCNc6c(C(N)=O)c(-c7ccc(Oc8ccccc8)cc7)nn65)CC4)nn3)c2n1 (single isomer, unassigned) [GY134] | IC50 [1]: 6990 nM; IC50 ([2]; Homo sapiens, Raji): 5120 nM |
| 9.07 µM |  |  |  | CCCCOc1nc(N)c2nc(O)n(Cc3cn(CCOCCOCCOCCNC(=S)N4CCC(C5CCNc6c(C(N)=O)c(-c7ccc(Oc8ccccc8)cc7)nn65)CC4)nn3)c2n1 (single isomer, unassigned) [GY135] | IC50 [1]: 14600 nM; IC50 [4, 6]: 13100 nM; IC50 [2]: 7600 nM |
| 2.92 µM |  |  |  | C=C(CC(=O)NCCOCCOCCOCCn1cc(Cn2c(O)nc3c(N)nc(OCCCC)nc32)nn1)C(=O)N1CCC(C2CCNc3c(C(N)=O)c(-c4ccc(Oc5ccccc5)cc4)nn32)CC1 (single isomer, unassigned) [GY137] | IC50 [1]: 24600 nM; IC50 ([4]; CCK8 method): 27000 nM; IC50 [2]: 37200 nM |
| 0.65 µM | 983 nM | 653 nM | 153 nM | C=C(CC(=O)NCCOCCOCCOCCn1cc(Cn2c(O)nc3c(N)nc(OCCCC)nc32)nn1)C(=O)O [GY109] |  |
| 3.17 µM |  |  |  | CCCCOc1nc(N)c2nc(O)n(Cc3cn(CCOCCOCCOCCNC(=O)CCC(=O)Nc4cccc5c4CN(C4CCC(=O)NC4=O)C5=O)nn3)c2n1 (stereo not shown) [GY110] |  |
| 1.87 µM |  |  |  | CCCCOc1nc(N)c2nc(O)n(Cc3cn(CCOCCOCCOCCNC(=O)c4cc(/N=N/c5ccc(S(=O)(=O)Nc6ccccn6)cc5)ccc4O)nn3)c2n1 [GY113] |  |
|  | 10 nM | 5930 nM | 1 nM | CCCCOc1nc(N)c2nc(O)n(Cc3cn(CCOCCOCCOCCNC(=S)NNCCc4ccccc4)nn3)c2n1 [GY164] |  |
